Results: article PMC5218480 (PLoS ONE, 2017)

Test system: MV-4-11 cells
Assay: Gene expression microarray analysis (Affymetrix PrimeView) and GSEA
Format: cell-based, human
Design: RFU PODN (11730768_x_at) / Fold change /veh PODN (11730768_x_at) / RFU LINC00158 (11744669_a_at) / Fold change /veh LINC00158 (11744669_a_at) / RFU DUSP10 (11751237_a_at) / Fold change /veh DUSP10 (11751237_a_at) / RFU ID3 (11757404_x_at) / Fold change /veh ID3 (11757404_x_at) / RFU PLEKHG5 (11737974_s_at) / Fold change /veh PLEKHG5 (11737974_s_at) / RFU LRRC4B (11730491_at) / Fold change /veh LRRC4B (11730491_at) / RFU GIMAP4 (11747438_a_at) / Fold change /veh GIMAP4 (11747438_a_at) / RFU KRT8 (11758183_x_at) / Fold change /veh KRT8 (11758183_x_at) / RFU CNN1 (11734310_a_at) / Fold change /veh CNN1 (11734310_a_at) / RFU VPS37D (11726825_at) / Fold change /veh VPS37D (11726825_at) / RFU C10orf10 (11716522_x_at) / Fold change /veh C10orf10 (11716522_x_at) / RFU KIR2DL2 /// KIR2DL4 /// KIR2DL5A /// KIR2DL5B /// KIR2DS1 /// KIR2DS2 /// KIR2DS3 /// KIR2DS4 /// KIR3DL3 /// KIR3DL3 /// KIR3DS1 (11738374_at) / Fold change /veh KIR2DL2 /// KIR2DL4 /// KIR2DL5A /// KIR2DL5B /// KIR2DS1 /// KIR2DS2 /// KIR2DS3 /// KIR2DS4 /// KIR3DL3 /// KIR3DL3 /// KIR3DS1 (11738374_at) / RFU C1QL1 (11718748_at) / Fold change /veh C1QL1 (11718748_at) / RFU TMPRSS4 (11747572_a_at) / Fold change /veh TMPRSS4 (11747572_a_at) / RFU HAMP (11756126_x_at) / Fold change /veh HAMP (11756126_x_at) / RFU RNFT2 (11725882_a_at) / Fold change /veh RNFT2 (11725882_a_at) / RFU NR4A2 (11747474_a_at) / Fold change /veh NR4A2 (11747474_a_at) / RFU ABCC12 (11746883_a_at) / Fold change /veh ABCC12 (11746883_a_at) / RFU TMEM136 (11760407_x_at) / Fold change /veh TMEM136 (11760407_x_at) / RFU CLDN22 /// WWC2 (11732394_at) / Fold change /veh CLDN22 /// WWC2 (11732394_at) / RFU HLA-DPB1 (11760878_x_at) / Fold change /veh HLA-DPB1 (11760878_x_at) / RFU SPINT1 (11716480_a_at) / Fold change /veh SPINT1 (11716480_a_at) / RFU GAP43 (11754022_s_at) / Fold change /veh GAP43 (11754022_s_at) / RFU A4GNT (11735810_at) / Fold change /veh A4GNT (11735810_at) / RFU PRB3 (11715151_x_at) / Fold change /veh PRB3 (11715151_x_at) / RFU TUBB4B (11761932_at) / Fold change /veh TUBB4B (11761932_at) / RFU CAPN14 (11732068_a_at) / Fold change /veh CAPN14 (11732068_a_at) / RFU TMCC2 (11721928_a_at) / Fold change /veh TMCC2 (11721928_a_at) / RFU IRGQ (11745062_a_at) / Fold change /veh IRGQ (11745062_a_at) / RFU FAM174B (11720279_a_at) / Fold change /veh FAM174B (11720279_a_at) / RFU TMPRSS4 (11748680_a_at) / Fold change /veh TMPRSS4 (11748680_a_at) / RFU FAM212B (11763350_a_at) / Fold change /veh FAM212B (11763350_a_at) / RFU PLEKHG5 (11743358_a_at) / Fold change /veh PLEKHG5 (11743358_a_at) / RFU ZSCAN30 (11745921_a_at) / Fold change /veh ZSCAN30 (11745921_a_at) / RFU CMKLR1 (11741424_a_at) / Fold change /veh CMKLR1 (11741424_a_at) / RFU LOC101060620 /// MAPK8IP1 (11723275_at) / Fold change /veh LOC101060620 /// MAPK8IP1 (11723275_at) / RFU SPTSSB (11747773_x_at) / Fold change /veh SPTSSB (11747773_x_at) / RFU PRSS12 (11739890_at) / Fold change /veh PRSS12 (11739890_at) / RFU BIN1 (11741810_x_at) / Fold change /veh BIN1 (11741810_x_at) / RFU WNT11 (11732464_a_at) / Fold change /veh WNT11 (11732464_a_at) / RFU C10orf10 (11716521_a_at) / Fold change /veh C10orf10 (11716521_a_at) / RFU C5orf56 (11738089_at) / Fold change /veh C5orf56 (11738089_at) / RFU CYB561 (11721691_x_at) / Fold change /veh CYB561 (11721691_x_at) / RFU ANKRD19P (11752326_a_at) / Fold change /veh ANKRD19P (11752326_a_at) / RFU OR2T12 /// OR2T33 /// OR2T8 (11738714_s_at) / Fold change /veh OR2T12 /// OR2T33 /// OR2T8 (11738714_s_at) / RFU VCAN (11748164_a_at) / Fold change /veh VCAN (11748164_a_at) / RFU JSRP1 (11732532_at) / Fold change /veh JSRP1 (11732532_at) / RFU KRTAP10-11 (11738290_x_at) / Fold change /veh KRTAP10-11 (11738290_x_at) / RFU MYO3A (11730013_a_at) / Fold change /veh MYO3A (11730013_a_at) / RFU EBF3 (11725865_a_at) / Fold change /veh EBF3 (11725865_a_at) / RFU CAMK2N1 (11719241_x_at) / Fold change /veh CAMK2N1 (11719241_x_at) / RFU C5orf56 (11738088_a_at) / Fold change /veh C5orf56 (11738088_a_at) / RFU OLFML3 (11715873_a_at) / Fold change /veh OLFML3 (11715873_a_at) / RFU LOC100653217 /// NTM (11731650_a_at) / Fold change /veh LOC100653217 /// NTM (11731650_a_at) / RFU MAPK11 (11762145_a_at) / Fold change /veh MAPK11 (11762145_a_at) / RFU FIZ1 (11724087_x_at) / Fold change /veh FIZ1 (11724087_x_at) / RFU OASL (11726364_x_at) / Fold change /veh OASL (11726364_x_at) / RFU SOX15 (11748057_x_at) / Fold change /veh SOX15 (11748057_x_at) / RFU CD79A (11719716_a_at) / Fold change /veh CD79A (11719716_a_at) / RFU HIST1H1D (11736915_at) / Fold change /veh HIST1H1D (11736915_at) / RFU CASKIN2 (11723855_a_at) / Fold change /veh CASKIN2 (11723855_a_at) / RFU LOC730098 (11760151_x_at) / Fold change /veh LOC730098 (11760151_x_at) / RFU OR4N2 (11742367_at) / Fold change /veh OR4N2 (11742367_at) / RFU PRRT2 (11749266_a_at) / Fold change /veh PRRT2 (11749266_a_at) / RFU SNX32 (11753110_a_at) / Fold change /veh SNX32 (11753110_a_at) / RFU CDHR5 (11726645_a_at) / Fold change /veh CDHR5 (11726645_a_at) / RFU RCAN1 (11760418_a_at) / Fold change /veh RCAN1 (11760418_a_at) / RFU FAM167A (11723789_a_at) / Fold change /veh FAM167A (11723789_a_at) / RFU FAM26E (11764081_at) / Fold change /veh FAM26E (11764081_at) / RFU ISYNA1 (11749810_s_at) / Fold change /veh ISYNA1 (11749810_s_at) / RFU ACY1 (11761880_at) / Fold change /veh ACY1 (11761880_at) / RFU 11764098_at / Fold change /veh 11764098_at / RFU SAMD14 (11745864_x_at) / Fold change /veh SAMD14 (11745864_x_at) / RFU NPB (11741838_a_at) / Fold change /veh NPB (11741838_a_at) / RFU TMPRSS6 (11731388_a_at) / Fold change /veh TMPRSS6 (11731388_a_at) / RFU KRTAP10-2 (11738614_at) / Fold change /veh KRTAP10-2 (11738614_at) / RFU ARHGAP8 /// PRR5-ARHGAP8 (11727945_x_at) / Fold change /veh ARHGAP8 /// PRR5-ARHGAP8 (11727945_x_at) / RFU KRTAP5-7 /// NADSYN1 (11734609_at) / Fold change /veh KRTAP5-7 /// NADSYN1 (11734609_at) / RFU RASL12 (11751679_a_at) / Fold change /veh RASL12 (11751679_a_at) / RFU CDKN2B (11736163_a_at) / Fold change /veh CDKN2B (11736163_a_at) / RFU PRF1 (11729649_at) / Fold change /veh PRF1 (11729649_at) / RFU, ZNF638 /// ZNF638-IT1 / Fold change vs veh, ZNF638 /// ZNF638-IT1 / RFU, PANK3 / Fold change vs veh, PANK3 / RFU, SH3YL1 / Fold change vs veh, SH3YL1 / RFU, ZEB2 / Fold change vs veh, ZEB2 / RFU, NRIP1 / Fold change vs veh, NRIP1 / RFU, PTTG1IP / Fold change vs veh, PTTG1IP / RFU, CAPN2 / Fold change vs veh, CAPN2 / RFU, MED14 / Fold change vs veh, MED14 / RFU, SNORA58 / Fold change vs veh, SNORA58 / RFU, C1orf63 / Fold change vs veh, C1orf63 / RFU, LRRFIP1 / Fold change vs veh, LRRFIP1 / RFU, NDUFAF7 / Fold change vs veh, NDUFAF7 / RFU, SLC12A2 / Fold change vs veh, SLC12A2 / RFU, IBTK / Fold change vs veh, IBTK / RFU, ESF1 / Fold change vs veh, ESF1 / Fold change vs veh, TMEM50B / RFU, TAOK1 / Fold change vs veh, TAOK1 / RFU, ACBD3 / Fold change vs veh, ACBD3 / RFU, TMA16 / Fold change vs veh, TMA16 / RFU, RWDD3 / Fold change vs veh, RWDD3 / RFU, BCAT1 / Fold change vs veh, BCAT1 / RFU, EDEM3 / Fold change vs veh, EDEM3 / RFU, TMEM33 / Fold change vs veh, TMEM33 / RFU, WDR75 / Fold change vs veh, WDR75 / RFU, AHCTF1 / Fold change vs veh, AHCTF1 / RFU, TFRC / Fold change vs veh, TFRC / RFU, ZDHHC17 / Fold change vs veh, ZDHHC17 / RFU, NOM1 / Fold change vs veh, NOM1 / RFU, ARL8B / Fold change vs veh, ARL8B / RFU, ZBTB11 / Fold change vs veh, ZBTB11 / RFU, TAMM41 / Fold change vs veh, TAMM41 / RFU, KIAA1704 /// LOC100996395 / Fold change vs veh, KIAA1704 /// LOC100996395 / RFU, ING1 / Fold change vs veh, ING1 / RFU, TRMT61B / Fold change vs veh, TRMT61B / RFU, FUBP3 / Fold change vs veh, FUBP3 / RFU, TP53 / Fold change vs veh, TP53 / RFU, TNKS2 / Fold change vs veh, TNKS2 / RFU, ZFP14 / Fold change vs veh, ZFP14 / RFU, ACTR2 / Fold change vs veh, ACTR2 / RFU, PPP3R1 / Fold change vs veh, PPP3R1 / RFU, PIK3R1 / Fold change vs veh, PIK3R1 / RFU, HNRNPA1 / Fold change vs veh, HNRNPA1 / RFU, RNF170 / Fold change vs veh, RNF170 / RFU, ZNF28 / Fold change vs veh, ZNF28 / RFU, RNGTT / Fold change vs veh, RNGTT / RFU, OGT / Fold change vs veh, OGT / RFU, BRD1 / Fold change vs veh, BRD1 / RFU, MARS / Fold change vs veh, MARS / RFU, ZNF655 / Fold change vs veh, ZNF655 / RFU, FAHD1 / Fold change vs veh, FAHD1 / RFU, BDP1 / Fold change vs veh, BDP1 / RFU, LRRCC1 / Fold change vs veh, LRRCC1 / RFU, ARID1A / Fold change vs veh, ARID1A / RFU, ZNF146 / Fold change vs veh, ZNF146 / RFU, ZNF330 / Fold change vs veh, ZNF330 / RFU, GPN3 / Fold change vs veh, GPN3 / RFU, C9orf123 / Fold change vs veh, C9orf123 / RFU, N4BP2L2 / Fold change vs veh, N4BP2L2 / RFU, ARFIP1 / Fold change vs veh, ARFIP1 / RFU, FAM179B / Fold change vs veh, FAM179B / RFU, BCL10 / Fold change vs veh, BCL10 / RFU, UHRF1BP1L / Fold change vs veh, UHRF1BP1L / RFU, BET1 / Fold change vs veh, BET1 / RFU, CNOT2 / Fold change vs veh, CNOT2 / RFU, ZNF268 / Fold change vs veh, ZNF268 / Fold change vs veh, ZNF507 / RFU, DGCR2 / Fold change vs veh, DGCR2 / RFU, WDSUB1 / Fold change vs veh, WDSUB1 / Fold change vs veh, HSP90B1 /// MIR3652 / RFU, ADSS / Fold change vs veh, ADSS / RFU, GK / Fold change vs veh, GK / RFU, ZNF148 / Fold change vs veh, ZNF148 / RFU, TAF9 / Fold change vs veh, TAF9 / RFU, SLC1A5 / Fold change vs veh, SLC1A5 / RFU, SLMO2 / Fold change vs veh, SLMO2 / RFU, ABCC4 / Fold change vs veh, ABCC4 / RFU, LOC101060439 /// RAP1B / Fold change vs veh, LOC101060439 /// RAP1B / RFU, RFX7 / Fold change vs veh, RFX7 / RFU, GTPBP10 / Fold change vs veh, GTPBP10 / RFU, CNEP1R1 / Fold change vs veh, CNEP1R1 / RFU, BIVM-ERCC5 /// ERCC5 / Fold change vs veh, BIVM-ERCC5 /// ERCC5 / RFU, ILF3 / Fold change vs veh, ILF3 / RFU 11762660_at / Fold change /veh 11762660_at / RFU VCAN (11757783_s_at) / Fold change /veh VCAN (11757783_s_at) / RFU DDX43 (11728927_at) / Fold change /veh DDX43 (11728927_at) / RFU KRT8 (11758188_x_at) / Fold change /veh KRT8 (11758188_x_at) / RFU NKD1 (11759106_at) / Fold change /veh NKD1 (11759106_at) / RFU SRD5A1 (11742802_a_at) / Fold change /veh SRD5A1 (11742802_a_at) / RFU TPSAB1 /// TPSB2 (11721975_s_at) / Fold change /veh TPSAB1 /// TPSB2 (11721975_s_at) / RFU GSTM3 (11746129_a_at) / Fold change /veh GSTM3 (11746129_a_at) / RFU IL23R (11737362_x_at) / Fold change /veh IL23R (11737362_x_at) / RFU TMEM51 (11727254_a_at) / Fold change /veh TMEM51 (11727254_a_at) / RFU PIWIL2 (11732686_x_at) / Fold change /veh PIWIL2 (11732686_x_at) / RFU ORM1 (11744905_x_at) / Fold change /veh ORM1 (11744905_x_at) / RFU CCDC152 (11743942_at) / Fold change /veh CCDC152 (11743942_at) / RFU ECM1 (11717891_a_at) / Fold change /veh ECM1 (11717891_a_at) / RFU IL23R (11748794_a_at) / Fold change /veh IL23R (11748794_a_at) / RFU TNFAIP8L3 (11732012_x_at) / Fold change /veh TNFAIP8L3 (11732012_x_at) / RFU MBOAT4 (11741988_at) / Fold change /veh MBOAT4 (11741988_at) / RFU 11764193_at / Fold change /veh 11764193_at / RFU TMEM53 (11763286_at) / Fold change /veh TMEM53 (11763286_at) / RFU MAGEB2 (11727129_at) / Fold change /veh MAGEB2 (11727129_at) / RFU TMEM200A (11744735_a_at) / Fold change /veh TMEM200A (11744735_a_at) / RFU CCDC152 (11751479_a_at) / Fold change /veh CCDC152 (11751479_a_at) / RFU FAM211A (11726209_a_at) / Fold change /veh FAM211A (11726209_a_at) / RFU RGS16 (11746705_a_at) / Fold change /veh RGS16 (11746705_a_at) / RFU VCAN (11755009_s_at) / Fold change /veh VCAN (11755009_s_at) / RFU RHOB (11743442_s_at) / Fold change /veh RHOB (11743442_s_at) / RFU RGS16 (11720943_a_at) / Fold change /veh RGS16 (11720943_a_at) / RFU RGS16 (11720944_at) / Fold change /veh RGS16 (11720944_at) / RFU, VPS4B / Fold change vs veh, VPS4B / RFU, CREB1 / Fold change vs veh, CREB1 / RFU, DNAJC13 / Fold change vs veh, DNAJC13 / RFU, GNAQ / Fold change vs veh, GNAQ / RFU, CDK5R1 / Fold change vs veh, CDK5R1 / RFU, ZRANB3 / Fold change vs veh, ZRANB3 / RFU, CUL4A / Fold change vs veh, CUL4A / RFU, CCNY / Fold change vs veh, CCNY / RFU, UFL1 / Fold change vs veh, UFL1 / RFU, COG3 / Fold change vs veh, COG3 / RFU, DIAPH2 / Fold change vs veh, DIAPH2 / RFU, SKA2 / Fold change vs veh, SKA2 / RFU, AFF3 / Fold change vs veh, AFF3 / RFU, LMF1 / Fold change vs veh, LMF1 / RFU, IPO11 / Fold change vs veh, IPO11 / RFU, DFFB / Fold change vs veh, DFFB / RFU, FOXP1 / Fold change vs veh, FOXP1 / RFU, CARD8 / Fold change vs veh, CARD8 / RFU, STRN3 / Fold change vs veh, STRN3 / RFU, ADK / Fold change vs veh, ADK / RFU, RASSF2 / Fold change vs veh, RASSF2 / RFU, WIPF1 / Fold change vs veh, WIPF1 / RFU, LARP1B / Fold change vs veh, LARP1B / RFU, RASA1 / Fold change vs veh, RASA1 / RFU, RB1 / Fold change vs veh, RB1 / RFU, PPFIA1 / Fold change vs veh, PPFIA1 / RFU, MAT2A / Fold change vs veh, MAT2A / RFU, CCT5 / Fold change vs veh, CCT5 / RFU, WDR92 / Fold change vs veh, WDR92 / RFU, CUX1 / Fold change vs veh, CUX1 / RFU, TTC7A / Fold change vs veh, TTC7A / RFU, TMEM135 / Fold change vs veh, TMEM135 / RFU, DEPTOR / Fold change vs veh, DEPTOR / RFU, CPM / Fold change vs veh, CPM / RFU, DNAJB6 / Fold change vs veh, DNAJB6 / RFU, CACNA2D3 / Fold change vs veh, CACNA2D3 / RFU, DTX4 / Fold change vs veh, DTX4 / RFU, TFCP2 / Fold change vs veh, TFCP2 / RFU, GMCL1 /// GMCL1P1 / Fold change vs veh, GMCL1 /// GMCL1P1 / RFU, AEBP2 / Fold change vs veh, AEBP2 / RFU, SNHG1 /// SNORD22 /// SNORD25 /// SNORD26 /// SNORD27 /// SNORD28 /// SNORD29 /// SNORD31 / Fold change vs veh, SNHG1 /// SNORD22 /// SNORD25 /// SNORD26 /// SNORD27 /// SNORD28 /// SNORD29 /// SNORD31 / Fold change (Aza/veh), C12orf56 (ProbeSet 11735607_a_at) / Fold change (ACY-1035/veh), C12orf56 (ProbeSet 11735607_a_at) / Fold change (Aza/veh), FGFR1OP (ProbeSet 11751329_s_at) / Fold change (ACY-1035/veh), FGFR1OP (ProbeSet 11751329_s_at) / Fold change (Aza/veh), VPS36 (ProbeSet 11739960_a_at) / Fold change (ACY-1035/veh), VPS36 (ProbeSet 11739960_a_at) / RFU SYPL1 (11715823_x_at) / Fold change /veh SYPL1 (11715823_x_at) / RFU IGFBP7 (11715501_s_at) / Fold change /veh IGFBP7 (11715501_s_at) / RFU REEP3 (11722064_at) / Fold change /veh REEP3 (11722064_at) / RFU IGLL1 (11728026_x_at) / Fold change /veh IGLL1 (11728026_x_at): dose or concentration left out as unconfirmed
Details: MV-4-11 cells, 48 hours

## Nc1ccc(-c2cccs2)cc1NC(=O)c1ccc2c(c1)cc(C1CC1)n2CCN1CCOCC1 [ACY-1035]
  Fold change /veh SAMD14 (11745864_x_at): 1.01
